Measured values taken from publication PMC11881906, “Development of xanthone derivatives as effective broad-spectrum antimicrobials: Disrupting cell wall and inhibiting DNA synthesis” (Science Advances, 2025).
Converted amounts (≈) assume the structure as drawn.

Experiments:
S. aureus ATCC 29213 = test: MIC, broth microdilution; format: cell-based; details: Staphylococcus aureus, ATCC29213, 24 h, 24-hour incubation, MHB; read-out: MIC90 S. aureus ATCC 29213
Protocol: (§1) MIC was determined using the broth microdilution method in accordance with Clinical and Laboratory Standards Institute guidelines. All compounds were dissolved in dimethyl sulfoxide (DMSO; final DMSO concentration of less than 0.5%) and sterile double-distilled water and then diluted with Mueller-Hinton broth (MHB). Each compound’s stock solution was serially twofold diluted, resulting in concentrations ranging from 0.39 to 100 μg/ml, and thereafter added to sterile 96-well plates. All bacterial cell suspensions were adjusted in MHB to attain a starting inoculum of 1 × 10^6 cells/ml. A total of 100 μl volume of the bacterial suspension was then added to each well. Following a 24-hour incubation at 37°C, the optical density at 600 nm (OD600) was confirmed by measuring absorbance at 600 nm with a BioTek microplate reader. […] All measurements were repeated three times with duplicates each time.

MRSA N315 = test: MIC, broth microdilution; format: cell-based; details: Staphylococcus aureus, 24-hour incubation, MHB, read-out: MIC90 MRSA N315
Protocol: as §1

MRSA NCTC 10442 = test: MIC, broth microdilution; format: cell-based; details: Staphylococcus aureus; 24-hour incubation, MHB; read-out: MIC90 MRSA NCTC 10442
Protocol: as §1

E. coli ATCC 25922 = test: MIC, broth microdilution; format: cell-based, Escherichia coli; details: 24-hour incubation, MHB; for MIC90: Escherichia coli, ATCC25922, 24 h, read-out: MIC90 E. coli ATCC 25922
Protocol: as §1

rabbit erythrocytes = test: Hemolysis assay; format: cell-based; details: concentration causing 50% hemolysis of red blood cells; 1 hour, 37°C
Protocol: The hemolytic activity of antimicrobial agents was investigated as previously described ([70]). Briefly, the rabbit erythrocytes were centrifuged at 2500 rpm for 3 min before being washed twice with sterile phosphate-buffered saline (PBS) (pH 7.4). Subsequently, the erythrocytes were diluted with PBS to a final concentration of 8% (v/v). The DMSO-dissolved compounds were twofold serially diluted in PBS to achieve a final concentration with DMSO less than 0.5%. […] Sterile PBS and 0.2% Triton X-100 were used as negative and positive controls, respectively. After 1 hour of incubation at 37°C, the tested samples were centrifuged at 2500 rpm for 5 min, and aliquots of the supernatant were added to 96-well microplates. The hemoglobin release was determined by measuring the absorbance at 576 nm using a BioTek multimode reader. The percentage of hemolytic activity was calculated using the following formula: Hemolysis rate (%) = [OD576 (compound) − OD576 (PBS)]/[OD576 (Triton X-100) − OD576 (PBS)] × 100. All measurements were repeated three times with duplicates each time.

K. pneumonia ATCC 14581 = test: MIC, broth microdilution; format: cell-based; details: Klebsiella pneumoniae, ATCC14581; 24-hour incubation, MHB
Protocol: as §1

A. baumannii ATCC 17978 = test: MIC, broth microdilution; format: cell-based; details: Acinetobacter baumannii, ATCC17978; 24-hour incubation, MHB
Protocol: as §1

K. pneumonia ATCC 10031 = test: MIC, broth microdilution; format: cell-based; details: Klebsiella pneumoniae, ATCC10031; 24-hour incubation, MHB
Protocol: as §1

A. baumannii R2889 = test: MIC, broth microdilution; format: cell-based; details: Acinetobacter baumannii, 24-hour incubation, MHB
Protocol: as §1

P. aeruginosa ATCC 9027 = test: MIC, broth microdilution; format: cell-based; details: Pseudomonas aeruginosa, ATCC9027; 24-hour incubation, MHB
Protocol: as §1

Gram-positive bacteria = test: MIC, summary over Gram-positive strains; format: cell-based; details: read-out: MICs against Gram-positive bacteria, three Gram-positive strains
Protocol: as §1

CCK-8 cytotoxicity assay = format: cell-based; details: mouse, NCTC clone 929 fibroblast cells, 25 μg/ml, read-out: %Viable cells NCTC clone 929 cells
Protocol: Cytotoxicity of the compound tested was assessed by CCK-8 assays as previously described ([71]). […] Following a 24-hour incubation, 10 μl of CCK-8 reagent was added to each well and incubated for 1 hour. The absorbance at 450 nm was measured by a microplate reader. All measurements were repeated three times with duplicates each time.

| MIC90 (S. aureus ATCC 29213) [µg/mL] | MIC90 (MRSA N315) [µg/mL] | MIC90 (MRSA NCTC 10442) [µg/mL] | MIC90 (E. coli ATCC 25922) [µg/mL] | MIC90 E. coli ATCC 25922 (E. coli ATCC 25922) [µg/mL] | SMILES | HC50 (rabbit erythrocytes) [µg/mL] | MIC90 (K. pneumonia ATCC 14581) [µg/mL] | MIC90 (A. baumannii ATCC 17978) [µg/mL] | MIC90 (K. pneumonia ATCC 10031) [µg/mL] | MIC90 (A. baumannii R2889) [µg/mL] | MIC90 (P. aeruginosa ATCC 9027) [µg/mL] | MIC (Gram-positive bacteria) [µg/mL] | viability at 24 h, 25 μg/ml (CCK-8 cytotoxicity assay) [%] |
| --- | --- | --- | --- | --- | --- | --- | --- | --- | --- | --- | --- | --- | --- |
| 6.25 (≈ 13 µM) | 6.25 (≈ 13 µM) | 6.25 (≈ 13 µM) | 12.5 (≈ 25.9 µM) |  | CNCCCCOc1ccc2c(=O)c3c(OCC=C(C)C)cc(OCCCCNC)cc3oc2c1 [XT31] | >200 |  |  |  |  |  |  |  |
| 3.12 (≈ 5.51 µM) | 6.25 (≈ 11 µM) | 3.12 (≈ 5.51 µM) | 100 (≈ 176 µM) |  | CCN(CC)CCCCOc1ccc2c(=O)c3c(OCC=C(C)C)cc(OCCCCN(CC)CC)cc3oc2c1 [XT32] | >200 |  |  |  |  |  |  |  |
| 3.12 (≈ 6.87 µM) | 3.12 (≈ 6.87 µM) | 3.12 (≈ 6.87 µM) | 12.5 (≈ 27.5 µM) |  | CC(C)=CCOc1cc(OCCCCN)cc2oc3cc(OCCCCN)ccc3c(=O)c12 [XT33] | >200 |  |  |  |  |  |  |  |
| 1.56 (≈ 2.9 µM) | 1.56 (≈ 2.9 µM) | 1.56 (≈ 2.9 µM) | 12.5 (≈ 23.2 µM) |  | CNCCCCCCOc1ccc2c(=O)c3c(OCC=C(C)C)cc(OCCCCCCNC)cc3oc2c1 [XT34] | >200 |  |  |  |  |  |  |  |
| 1.56 (≈ 2.5 µM) | 3.12 (≈ 5.02 µM) | 3.12 (≈ 5.02 µM) | 50 (≈ 80.3 µM) |  | CCN(CC)CCCCCCOc1ccc2c(=O)c3c(OCC=C(C)C)cc(OCCCCCCN(CC)CC)cc3oc2c1 [XT35] | >200 |  |  |  |  |  |  |  |
| 0.78 (≈ 1.31 µM) | 0.39 (≈ 0.656 µM) | 0.39 (≈ 0.656 µM) | 6.25 (≈ 10.5 µM) |  | CNCCCCCCCCOc1ccc2c(=O)c3c(OCC=C(C)C)cc(OCCCCCCCCNC)cc3oc2c1 [XT37] | >200 |  |  |  |  |  |  |  |
| 0.39 (≈ 0.574 µM) | 0.78 (≈ 1.15 µM) | 1.56 (≈ 2.3 µM) | > 50 |  | CCN(CC)CCCCCCCCOc1ccc2c(=O)c3c(OCC=C(C)C)cc(OCCCCCCCCN(CC)CC)cc3oc2c1 [XT38] | >200 |  |  |  |  |  |  |  |
| 25 (≈ 35.4 µM) | 12.5 (≈ 17.7 µM) | 6.25 (≈ 8.84 µM) | > 100 | >100 | CNCCCCCCCCCCCCOc1ccc2c(=O)c3c(OCC=C(C)C)cc(OCCCCCCCCCCCCNC)cc3oc2c1 [XT40] | >200 |  |  |  |  |  |  |  |
|  | 3.12 (≈ 3.95 µM) | 3.12 (≈ 3.95 µM) | > 100 | >100 | CCN(CC)CCCCCCCCCCCCOc1ccc2c(=O)c3c(OCC=C(C)C)cc(OCCCCCCCCCCCCN(CC)CC)cc3oc2c1 [XT41] | >200 |  |  |  |  |  |  |  |

| SMILES | MIC90 (S. aureus ATCC 29213) [µg/mL] | MIC90 (MRSA N315) [µg/mL] | MIC90 (MRSA NCTC 10442) [µg/mL] | MIC90 (E. coli ATCC 25922) [µg/mL] | MIC90 E. coli ATCC 25922 (E. coli ATCC 25922) [µg/mL] | HC50 (rabbit erythrocytes) [µg/mL] | MIC90 (K. pneumonia ATCC 14581) [µg/mL] | MIC90 (A. baumannii ATCC 17978) [µg/mL] | MIC90 (K. pneumonia ATCC 10031) [µg/mL] | MIC90 (A. baumannii R2889) [µg/mL] | MIC90 (P. aeruginosa ATCC 9027) [µg/mL] | MIC (Gram-positive bacteria) [µg/mL] | viability at 24 h, 25 μg/ml (CCK-8 cytotoxicity assay) [%] |
| --- | --- | --- | --- | --- | --- | --- | --- | --- | --- | --- | --- | --- | --- |
| CC(C)=CCOc1cc(OCCNC(=N)N)cc2oc3cc(OCCNC(=N)N)ccc3c(=O)c12 [XT42] | 1.56 (≈ 3.23 µM) | 1.56 (≈ 3.23 µM) | 1.56 (≈ 3.23 µM) |  |  | >200 | 50 (≈ 104 µM) | > 50 | 50 (≈ 104 µM) | > 50 | 6.25 (≈ 13 µM) | 0.098 to 1.56 (≈ 0.203 to 3.23 µM) |  |
| CC(C)=CCOc1cc(OCCCCNC(=N)N)cc2oc3cc(OCCCCNC(=N)N)ccc3c(=O)c12 [XT43] | 0.195 (≈ 0.362 µM) | 0.195 (≈ 0.362 µM) | 0.195 (≈ 0.362 µM) | 1.56 to 12.5 (≈ 2.9 to 23.2 µM) | 1.56 (≈ 2.9 µM) | >200 | 12.5 (≈ 23.2 µM) | 12.5 (≈ 23.2 µM) | 6.25 (≈ 11.6 µM) | 25 (≈ 46.4 µM) | 12.5 (≈ 23.2 µM) | 0.098 to 1.56 (≈ 0.182 to 2.9 µM) | 40.3 ± 1.33 |
| CC(C)=CCOc1cc(OCCCCCCCCNC(=N)N)cc2oc3cc(OCCCCCCCCNC(=N)N)ccc3c(=O)c12 [XT45] | 0.39 (≈ 0.599 µM) | 0.195 (≈ 0.3 µM) | 0.39 (≈ 0.599 µM) |  |  | >200 | 25 (≈ 38.4 µM) | 50 (≈ 76.8 µM) | 12.5 (≈ 19.2 µM) | 50 (≈ 76.8 µM) | > 50 | 0.098 to 1.56 (≈ 0.151 to 2.4 µM) |  |
